Entries after “also recorded” stand apart in the source; their conditions may differ. Read-outs that look alike come from different tables or passages of the source.
Assays:
[1] = design: species or system human; conditions: in vivo
[2] = type: in vivo, human; conditions: for AUC(0-t) / Cmax: median (range)
[3] = tested on: relapsed or refractory solid tumors; test: Pediatric phase 1 trial: tumor response; type: in vivo, human
[4] = adults, PO bid, ref [6], [60]–[62], cited from earlier work

With `O=C1NC(=O)[C@@H](c2cn3c4c(cccc24)CCC3)[C@@H]1c1c[nH]c2ccccc12` [Tivantinib] the “Anemia, maximum Gr. 1 (number of patients)” value ([1]; human) was 4, the “Grade 1 or 2 anemia (number)” value ([1]; human) was 12 and the “Grade 1 or 2 fatigue (number)” value ([1]; human) was 8. The “Grade 1 or 2 hypoalbuminemia (number)” value ([1]; human) was 4, the “Grade 1 or 2 leukopenia (number)” value ([1]; human) was 5 and the “Grade 1 or 2 lymphopenia (number)” value ([1]; human) was 8. The “Grade 1 or 2 nausea (number)” value ([1]; human) was 5, the “Grade 1 or 2 neutropenia (number)” value ([1]; human) was 5 and the “Grade 1 or 2 thrombocytopenia (number)” value ([1]; human) was 3. The “Grade 1 or 2 vomiting (number)” value ([1]; human) was 5, the “Hemoglobin increased, maximum Gr. 1 (number of patients)” value ([1]; human) was 1 and the “Lymphocyte count decreased, maximum Gr. 1 (number of patients)” value ([1]; human) was 2. The “Lymphocyte count decreased, maximum Gr. 2 (number of patients)” value ([1]; human) was 2, the “Lymphocyte count increased, maximum Gr. 2 (number of patients)” value ([1]; human) was 1 and the “Neutrophil count decreased, maximum Gr. 2 (number of patients)” value ([1]; human) was 2. The “Platelet count decreased, maximum Gr. 1 (number of patients)” value ([1]; human) was 2, the “White blood cell decreased, maximum Gr. 1 (number of patients)” value ([1]; human) was 3 and the “grade 3 anemia (number)” value ([1]; human) was 1. The “grade 3 lymphopenia (number)” value ([1]; human) was 2, the “recommended phase 2 dose (RP2D)” value ([1]; human) was 240 mg/m^2/dose and the “Anemia, maximum Gr. 1 (number of patients)” value ([1]; human, 1 cycle) was 9. The “Anemia, maximum Gr. 2 (number of patients)” value ([1]; human, 1 cycle) was 3, the “Anemia, maximum Gr. 3 (number of patients)” value ([1]; human, 1 cycle) was 1 and the “Fatigue, maximum Gr. 1 (number of patients)” value ([1]; human, 1 cycle) was 5. The “Fatigue, maximum Gr. 2 (number of patients)” value ([1]; human, 1 cycle) was 3, the “Hypoalbuminemia, maximum Gr. 1 (number of patients)” value ([1]; human, 1 cycle) was 2 and the “Hypoalbuminemia, maximum Gr. 2 (number of patients)” value ([1]; human, 1 cycle) was 2. For the same molecule, the “Lymphocyte count decreased, maximum Gr. 1 (number of patients)” value ([1]; human, 1 cycle) was 3, the “Lymphocyte count decreased, maximum Gr. 2 (number of patients)” value ([1]; human, 1 cycle) was 5 and the “Lymphocyte count decreased, maximum Gr. 3 (number of patients)” value ([1]; human, 1 cycle) was 2. The “Nausea, maximum Gr. 1 (number of patients)” value ([1]; human, 1 cycle) was 4, the “Nausea, maximum Gr. 2 (number of patients)” value ([1]; human, 1 cycle) was 1 and the “Neutrophil count decreased, maximum Gr. 1 (number of patients)” value ([1]; human, 1 cycle) was 3. For the same molecule, the “Neutrophil count decreased, maximum Gr. 2 (number of patients)” value ([1]; human, 1 cycle) was 2, the “Platelet count decreased, maximum Gr. 1 (number of patients)” value ([1]; human, 1 cycle) was 3 and the “Vomiting, maximum Gr. 1 (number of patients)” value ([1]; human, 1 cycle) was 4. For the same molecule, the “Vomiting, maximum Gr. 2 (number of patients)” value ([1]; human, 1 cycle) was 1, the “White blood cell decreased, maximum Gr. 1 (number of patients)” value ([1]; human, 1 cycle) was 5 and the “White blood cell decreased, maximum Gr. 2 (number of patients)” value ([1]; human, 1 cycle) was 2. The Sinus bradycardia [1] was “not readily apparent”, the tolerability [1] was “well tolerated” and the “Tmax, median (range)” value ([2]; Powder sprinkled on food, 240 mg/m^2 (n=9), Day 1 Cycle 1) was 2.0 (1.0–6.0) h. The “inter-patient variability in Cmax and AUC0–8h” value ([2]; across all dose levels) was 20 fold, the AUC(0-t) ([2]; human, plasma, oral, 170 mg/m2, AUC0–8h, Capsule, 170 mg/m^2 (n=6), Day 1 Cycle 1, with food) was 3820 ng·h/mL and the Tmax ([2]; human, plasma, oral, 200 mg/m2) was 4 h. The AUC(0-t) ([2]; human, plasma, oral, 200 mg/m2, AUC0–8h, Capsule, 200 mg/m^2 (n=7), Day 1 Cycle 1, with food) was 9470 ng·h/mL, the Cmax ([2]; human, plasma, oral, 200 mg/m2, Cmax, Capsule, 200 mg/m^2 (n=7), Day 1 Cycle 1, with food) was 2180 ng/mL and the Tmax ([2]; human, plasma, oral, 240 mg/m2) was 2 h. It also gave an AUC(0-t) ([2]; human, plasma, oral, 240 mg/m2, AUC0–8h, Capsule, 240 mg/m^2 (n=13), Day 1 Cycle 1, with food) of 5630 ng·h/mL, an AUC(0-t) ([2]; human, plasma, oral, 240 mg/m2, AUC0–8h, Powder sprinkled on food, 240 mg/m^2 (n=9), Day 1 Cycle 1) of 7300 ng·h/mL and a Cmax ([2]; human, plasma, oral, 240 mg/m2, Cmax, Capsule, 240 mg/m^2 (n=13), Day 1 Cycle 1, with food) of 1300 ng/mL. For the same molecule, the Cmax ([2]; human, plasma, oral, 240 mg/m2, Cmax, Powder sprinkled on food, 240 mg/m^2 (n=9), Day 1 Cycle 1) was 1530 ng/mL, the half-life ([2]; human, plasma, oral, apparent elimination half-life, median, evaluable in 29 of 35 patients, range 1.2 – 18.0 hrs) was 2.7 h and the Tmax ([2]; human, plasma, po) was roughly 2 h. For the same molecule, the objective responses ([3]; 32 patients evaluable for response, single agent) was “not observed; also recorded: no objective responses”, the “duration of stable disease” value ([3]; patient with neuroblastoma, 28-day cycles) was 8 cycles and the “maximum tolerated dose (MTD)” value ([4]; amorphous form (approximately 170 mg/m^2/dose)) was 300 mg. The “maximum tolerated dose (MTD)” value ([4]; crystalline form (approximately 210 mg/m^2/dose)) was 360 mg.
